Source: ChEMBL document CHEMBL5214962, “Improving lipophilicity of 5-(1-acetyl-5-phenylpyrazolidin-3-ylidene)-1,3-dimethylbarbituric acid increases its efficacy to activate hypoxia-inducible factors” (Bioorg Med Chem, 2022)
Active and inactive are the calls of the source. The rule behind the calls is not given here.

Legend:
[1] = Cytotoxicity against human SK-N-BE(2)-C expressing HRE-NLuc reporter system assessed as reduction in cell viability incubated for 24 hrs by CCK-8 assay; type: toxicity, cell-based; details: SK-N-BE(2)-C cells expressing HRE-NLuc reporter system, read-out: LC50
SK-N-BE(2)-C = assay: Activation of HIF-alpha transcriptional activity in human SK-N-BE(2)-C expressing HRE-NLuc reporter system assessed as compound concentration require for 5 fold increase in NLuc luciferase activity incubated for 24 hrs by Nano-Glo luciferase assay; type: cell-based
[2] = molecular target: Hypoxia-inducible factor 1-alpha (Homo sapiens) (UniProt Q16665); assay: Induction of HIF-1alpha stabilization in human Hep3B cells assessed as HIF-1alpha level at 1 to 100 uM incubated for 24 hrs by immunoblot analysis; type: cell-based; details: filed as activator, dose 1-100 µM, DDE = dose-dependent effect
[3] = molecular target: Endothelial PAS domain-containing protein 1 (Homo sapiens) (UniProt Q99814); assay: Induction of HIF-2alpha stabilization in human Hep3B cells assessed as […] at 1 to 100 uM incubated for 24 hrs by immunoblot analysis; type: cell-based; details: filed as activator, dose 1-100 µM, DDE = dose-dependent effect
[4] = molecular target: Hypoxia-inducible factor 1-alpha (Homo sapiens) (UniProt Q16665); assay: Induction of HIF-1alpha stabilization in human Hep3B cells assessed as HIF-1alpha level at 16 to 1000 nM incubated for 24 hrs by immunoblot analysis; type: cell-based; details: filed as activator, dose 16-1000 nM, DDE = dose-dependent effect
Hep3B [5] = assay: Activation of HIF dependent pathway in human Hep3B cells assessed as increase in CA9 mRNA expression level at 10 to 100 uM incubated for 24 hrs by RT-qPCR analysis; type: cell-based; details: filed as activator, dose 10-100 µM
Hep3B [6] = assay: Activation of HIF dependent pathway in human Hep3B cells assessed as increase in EPO mRNA expression level at 10 to 100 uM incubated for 24 hrs by RT-qPCR analysis; type: cell-based; details: filed as activator, dose 10-100 µM
[7] = molecular target: Endothelial PAS domain-containing protein 1 (Homo sapiens) (UniProt Q99814); assay: Induction of HIF-2alpha stabilization in human Hep3B cells assessed as […] at 16 to 1000 nM incubated for 24 hrs by immunoblot analysis; type: cell-based; details: filed as activator, dose 16-1000 nM, DDE = dose-dependent effect

Hypoxia-inducible factor 1-alpha (Homo sapiens), sequence (Q16665 whole entry, looked up, the tested form may be a part): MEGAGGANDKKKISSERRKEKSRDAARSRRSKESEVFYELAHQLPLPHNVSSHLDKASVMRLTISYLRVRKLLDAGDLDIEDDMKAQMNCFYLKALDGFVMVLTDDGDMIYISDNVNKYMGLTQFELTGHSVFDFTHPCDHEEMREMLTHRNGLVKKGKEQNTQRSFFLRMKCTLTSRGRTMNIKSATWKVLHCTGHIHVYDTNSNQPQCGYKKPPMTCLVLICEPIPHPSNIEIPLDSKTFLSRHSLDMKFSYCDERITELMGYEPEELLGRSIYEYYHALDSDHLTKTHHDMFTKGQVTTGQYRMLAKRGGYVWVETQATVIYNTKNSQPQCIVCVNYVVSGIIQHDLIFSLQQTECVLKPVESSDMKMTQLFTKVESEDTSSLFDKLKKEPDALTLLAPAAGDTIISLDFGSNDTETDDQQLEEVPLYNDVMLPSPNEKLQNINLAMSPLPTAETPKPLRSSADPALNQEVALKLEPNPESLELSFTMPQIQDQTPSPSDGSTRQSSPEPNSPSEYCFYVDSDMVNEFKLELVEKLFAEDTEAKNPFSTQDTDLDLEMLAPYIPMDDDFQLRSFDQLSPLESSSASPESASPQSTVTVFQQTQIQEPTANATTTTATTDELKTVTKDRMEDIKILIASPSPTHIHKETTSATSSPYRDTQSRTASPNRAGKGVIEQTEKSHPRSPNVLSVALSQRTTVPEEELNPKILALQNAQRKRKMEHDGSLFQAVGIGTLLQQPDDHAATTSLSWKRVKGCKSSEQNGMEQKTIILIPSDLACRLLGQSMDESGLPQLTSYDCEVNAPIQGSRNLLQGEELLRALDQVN
Endothelial PAS domain-containing protein 1 (Homo sapiens), sequence (Q99814 whole entry, the tested form may be a part): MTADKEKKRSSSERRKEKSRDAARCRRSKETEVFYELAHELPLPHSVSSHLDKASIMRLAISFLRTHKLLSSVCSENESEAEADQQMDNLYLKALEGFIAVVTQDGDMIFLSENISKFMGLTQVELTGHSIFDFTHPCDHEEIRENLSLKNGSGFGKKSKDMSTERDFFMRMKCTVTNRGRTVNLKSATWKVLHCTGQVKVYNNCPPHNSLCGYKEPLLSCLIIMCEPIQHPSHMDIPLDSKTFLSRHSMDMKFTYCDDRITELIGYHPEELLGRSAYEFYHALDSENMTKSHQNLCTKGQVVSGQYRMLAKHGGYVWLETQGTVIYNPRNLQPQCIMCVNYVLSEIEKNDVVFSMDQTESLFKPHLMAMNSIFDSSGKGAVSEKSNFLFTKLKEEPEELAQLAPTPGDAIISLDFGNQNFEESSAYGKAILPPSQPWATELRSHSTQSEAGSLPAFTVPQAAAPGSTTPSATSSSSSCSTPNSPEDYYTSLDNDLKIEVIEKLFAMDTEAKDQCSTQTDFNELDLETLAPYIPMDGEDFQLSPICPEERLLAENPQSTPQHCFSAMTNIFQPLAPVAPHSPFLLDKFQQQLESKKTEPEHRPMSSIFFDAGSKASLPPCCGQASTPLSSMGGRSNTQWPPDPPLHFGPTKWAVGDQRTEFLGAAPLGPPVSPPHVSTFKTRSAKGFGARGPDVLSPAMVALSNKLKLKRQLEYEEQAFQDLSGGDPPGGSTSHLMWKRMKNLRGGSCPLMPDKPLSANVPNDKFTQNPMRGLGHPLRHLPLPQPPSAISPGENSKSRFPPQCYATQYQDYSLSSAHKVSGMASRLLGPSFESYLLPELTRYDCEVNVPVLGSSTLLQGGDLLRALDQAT

Structure (SMILES) | CC50 at 24 h [1] [µM] | Activity (SK-N-BE(2)-C; filed as activator) [µM] | further results
CC(=O)N1NC(=C2C(=O)N(C)C(=O)N(C)C2=O)CC1c1ccc(Cl)cc1 (centres undefined) | > 100 | 9.1 | –
CC(=O)N1NC(=C2C(=O)N(C3CCCCC3)C(=O)N(C3CCCCC3)C2=O)CC1c1ccccc1 (centres undefined) | > 100 | 0.533 | –
COc1ccc(C2CC(=C3C(=O)N(C)C(=O)N(C)C3=O)NN2C(C)=O)cc1 (centres undefined) | > 100 | 19.5 | –
CC(=O)N1NC(=C2C(=O)N(C)C(=O)N(C)C2=O)CC1c1ccccc1 (centres undefined) | > 100 | 14.3 | Activity [2]: Dde; Activity [3]: Dde
CCCCCCCCc1ccc(C2CC(=C3C(=O)N(C)C(=O)N(C)C3=O)NN2C(C)=O)cc1 (centres undefined) | > 100 | 12.9 | –
CCCC(=O)N1NC(=C2C(=O)N(C3CCCCC3)C(=O)N(C3CCCCC3)C2=O)CC1c1ccccc1 (centres undefined) | > 100 | 0.441 | Activity [4]: Dde; Activity [2]: Dde; Activity (Hep3B [5]): Active; Activity (Hep3B [6]): Active; Activity [7]: Dde; Activity [3]: Dde
CC(=O)N1NC(=C2C(=O)N(C)C(=O)N(C)C2=O)CC1c1ccc(F)cc1 (centres undefined) | > 100 | 16.5 | –
CCCCCC(=O)N1NC(=C2C(=O)N(C)C(=O)N(C)C2=O)CC1c1ccccc1 (centres undefined) | > 100 | 0.96 | –
CCC(=O)N1NC(=C2C(=O)N(C3CCCCC3)C(=O)N(C3CCCCC3)C2=O)CC1c1ccccc1 (centres undefined) | > 100 | 0.126 | –
CC(=O)N1NC(=C2C(=O)N(C)C(=O)N(C)C2=O)CC1c1ccc(C)cc1 (centres undefined) | > 100 | 5.84 | –
Cc1nc(C(=O)NCC(=O)O)c(O)c2ccc(Oc3ccccc3)cc12 | – | – | Activity [2]: Dde; Activity [3]: Dde
CC(C)C(=O)N1NC(=C2C(=O)N(C)C(=O)N(C)C2=O)CC1c1ccccc1 (centres undefined) | > 100 | 8.55 | –
CCC(=O)N1NC(=C2C(=O)N(C)C(=O)N(C)C2=O)CC1c1ccc(-c2ccccc2)cc1 (centres undefined) | > 100 | 3.87 | –
CC(=O)N1NC(=C2C(=O)N(C)C(=O)N(C)C2=O)CC1c1ccc(Oc2ccccc2)cc1 (centres undefined) | > 100 | 6.82 | –
CC(=O)N1NC(=C2C(=O)N(C)C(=O)N(C)C2=O)CC1c1ccc2ccccc2c1 (centres undefined) | > 100 | 7.67 | –
COc1cccc(C2CC(=C3C(=O)N(C)C(=O)N(C)C3=O)NN2C(C)=O)c1Cl (centres undefined) | > 100 | 26.1 | –
CCCCCCCCCC(=O)N1NC(=C2C(=O)N(C)C(=O)N(C)C2=O)CC1c1ccccc1 (centres undefined) | > 100 | 0.153 | –
CCCCCC(=O)N1NC(=C2C(=O)N(C3CCCCC3)C(=O)N(C3CCCCC3)C2=O)CC1c1ccccc1 (centres undefined) | > 100 | 2.41 | –
CCCC(=O)N1NC(=C2C(=O)N(C)C(=O)N(C)C2=O)CC1c1ccccc1 (centres undefined) | > 100 | 4.85 | –
CC(C)C(=O)N1NC(=C2C(=O)N(C3CCCCC3)C(=O)N(C3CCCCC3)C2=O)CC1c1ccccc1 (centres undefined) | > 100 | 0.364 | –
CC(=O)N1NC(=C2C(=O)N(C)C(=O)N(C)C2=O)CC1c1ccc(-c2ccccc2)cc1 (centres undefined) | > 100 | 3.88 | –
CCC(=O)N1NC(=C2C(=O)N(C)C(=O)N(C)C2=O)CC1c1ccccc1 (centres undefined) | > 100 | 6.53 | –
CCCCCCCCCC(=O)N1NC(=C2C(=O)N(C3CCCCC3)C(=O)N(C3CCCCC3)C2=O)CC1c1ccccc1 (centres undefined) | > 100 | – | Activity (SK-N-BE(2)-C): > 100 µM
